In paper PMC4468940, “Glucose-tolerant β-glucosidase retrieved from a Kusaya gravy metagenome” (Frontiers in Microbiology, 2015):

Tests used:
Ks5A7 [1] = system: T1, Ks5A7; assay: p-nitrophenol release, […] nm, initial rates; assay type: biochemical, metagenome (uncultured bacterium, Kusaya gravy); conditions: McIlvaine buffer pH 5.5, 45°C, no glucose added
T1 construct: full length, 452 aa, 52,509 Da (53,573 Da tagged), C-terminal 6xHis tag (pET29b, primer-encoded LE linker) kept; E. coli Rosetta (DE3); ~160 kDa by gel filtration; GH1; N-terminus from primer MMKFNENFVWG, C-terminus IEENGENL; silent NdeI site removal

Ks5A7 [2] = system: T1, Ks5A7; assay: released glucose, Amplex Red glucose oxidase assay; assay type: biochemical, metagenome (uncultured bacterium, Kusaya gravy); conditions: McIlvaine buffer pH 5.5, 45°C
Excerpt: released glucose, Amplex Red glucose oxidase assay on Ks5A7

Row | Structure (SMILES) | Km (Ks5A7 [1]) [µM] | Km (Ks5A7 [2]) [µM]
1 | O=[N+]([O-])c1ccc(O[C@@H]2O[C@H](CO)[C@@H](O)[C@H](O)[C@H]2O)cc1 [pNPGlc] | 78 ± 2 | 
2 | OC[C@H]1O[C@@H](O[C@H]2[C@H](O)[C@@H](O)C(O)O[C@@H]2CO)[C@H](O)[C@@H](O)[C@@H]1O (stereo partly drawn) [Cellobiose] |  | 358 ± 55
3 | OC[C@H]1O[C@@H](O[C@H]2[C@H](O)[C@@H](O)[C@H](O[C@H]3[C@H](O)[C@@H](O)[C@H](O[C@H]4[C@H](O)[C@@H](O)C(O)O[C@@H]4CO)O[C@@H]3CO)O[C@@H]2CO)[C@H](O)[C@@H](O)[C@@H]1O (stereo partly drawn) [Cellotetraose] |  | 160 ± 12

Further lines, results first:

Row | Km (Ks5A7 [1]) [µM] | Km (Ks5A7 [2]) [µM] | Structure (SMILES)
4 | 152 ± 4 |  | C[C@H]1O[C@@H](Oc2ccc([N+](=O)[O-])cc2)[C@H](O)[C@@H](O)[C@H]1O [pNPFuc]
5 |  | 163 ± 16 | OC[C@H]1O[C@@H](O[C@H]2[C@H](O)[C@@H](O)[C@H](O[C@H]3[C@H](O)[C@@H](O)C(O)O[C@@H]3CO)O[C@@H]2CO)[C@H](O)[C@@H](O)[C@@H]1O (stereo partly drawn) [Cellotriose]
6 |  | 132 ± 11 | OC[C@H]1O[C@@H](O[C@H]2[C@H](O)[C@@H](O)[C@H](O[C@H]3[C@H](O)[C@@H](O)[C@H](O[C@H]4[C@H](O)[C@@H](O)[C@H](O[C@H]5[C@H](O)[C@@H](O)C(O)O[C@@H]5CO)O[C@@H]4CO)O[C@@H]3CO)O[C@@H]2CO)[C@H](O)[C@@H](O)[C@@H]1O (stereo partly drawn) [Cellopentaose]
